Data published in patent US20240150321A1, “PYRAZOLYLSULFONAMIDE COMPOUNDS AND THEIR USE IN THERAPY” (HOTSPOT THERAPEUTICS, INC., priority 2022, published 2024).
Read-outs that look alike come from different tables or passages of the source.

Experiments:
Avi-tagged FL MALT-1 = Avi-tagged FL MALT-1 (Homo sapiens (Human), UniProt Q9UDY8); experiment: MALT-1 Fluorogenic Peptide Cleavage Assay (MALT1 inhibition assay); format: biochemical; settings: Ac-LRSR-AMC peptide substrate, 30 min pre-incubation, 90 min reaction at room temperature
Avi-tagged FL MALT-1, sequence (Q9UDY8 whole entry): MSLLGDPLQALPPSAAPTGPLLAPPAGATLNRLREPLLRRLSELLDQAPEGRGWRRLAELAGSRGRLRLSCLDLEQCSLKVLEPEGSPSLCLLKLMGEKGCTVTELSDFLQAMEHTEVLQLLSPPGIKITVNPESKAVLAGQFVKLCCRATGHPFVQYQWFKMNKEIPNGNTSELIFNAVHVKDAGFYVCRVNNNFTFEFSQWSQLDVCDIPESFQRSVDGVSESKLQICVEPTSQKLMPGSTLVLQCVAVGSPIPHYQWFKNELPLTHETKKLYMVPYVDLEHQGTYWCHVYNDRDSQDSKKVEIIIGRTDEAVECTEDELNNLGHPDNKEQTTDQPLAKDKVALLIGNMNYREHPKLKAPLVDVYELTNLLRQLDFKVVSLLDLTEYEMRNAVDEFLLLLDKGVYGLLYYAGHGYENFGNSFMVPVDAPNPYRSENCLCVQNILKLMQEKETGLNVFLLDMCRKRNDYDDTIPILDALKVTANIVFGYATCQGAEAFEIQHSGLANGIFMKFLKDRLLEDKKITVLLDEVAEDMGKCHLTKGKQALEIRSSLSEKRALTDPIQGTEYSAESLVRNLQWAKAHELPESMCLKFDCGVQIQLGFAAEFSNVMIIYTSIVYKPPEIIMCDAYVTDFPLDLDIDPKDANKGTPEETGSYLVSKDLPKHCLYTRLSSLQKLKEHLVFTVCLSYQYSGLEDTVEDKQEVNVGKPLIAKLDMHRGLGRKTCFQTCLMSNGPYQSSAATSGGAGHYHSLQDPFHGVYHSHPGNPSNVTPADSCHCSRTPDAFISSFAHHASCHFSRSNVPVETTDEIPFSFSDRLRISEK
Method in brief: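 Full-length Avi-tagged human MALT-1 (40 nM working stock) pre-incubated 30 min at RT with compound in 25 mM HEPES pH 6.89, 660 mM sodium citrate, 1 mM TCEP, […], 0.05% CHAPS, 2% DMSO. Ac-LRSR-AMC added at Km (50 μM working stock) or 10×Km (280 μM working stock); 90 min at RT, AMC fluorescence (ex 342/em 441 nm), IC50 from % inhibition curves.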

[1] = system: NF-kB reporter in Jurkat cells; experiment: NF-kB reporter assay in Jurkat cells stimulated with aCD3/aCD28/PMA; format: cell-based; settings: Jurkat cells, 1 hr compound pre-incubation, aCD3/aCD28/PMA stimulation 4 hr, One-Glo readout, read-out: NF-kB Reporter Assay IC50
Method in brief: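 Jurkat cells (25,000/well, serum-free RPMI) were pre-incubated 1 h at 37° C with serially diluted compound, then stimulated 4 h with aCD3/aCD28/PMA at final […]. NF-kB reporter activity was read by One-Glo luminescence; IC50 values reported.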

IC50 (Avi-tagged FL MALT-1)	IC50 ([1]; Homo sapiens)	IC50 [1]	Molecule
> 2500 nM	< 400 nM		COc1ccc2cnn(C)c2c1NS(=O)(=O)c1cnn(-c2cc(C3(O)CC(C)(C)C3)ccn2)c1 [Compound I-479]
> 2500 nM	< 400 nM		COc1ccc2cnn(C)c2c1NS(=O)(=O)c1cnn(-c2cc(C3(OC)CC(C)(C)C3)ccn2)c1 [Compound I-480]
> 2500 nM	< 400 nM		COCC(C)(C)c1ccnc(-n2cc(S(=O)(=O)Nc3cccc4cnn(C)c34)cn2)c1 [Compound I-481, 1-(4-(1-methoxy-2-methylpropan-2-yl)pyridin-2-yl)-N-(1-methyl-1H-indazol-7-yl)-1H-pyrazole-4-sulfonamide]
400 to 1000 nM	< 400 nM		COCC(C)(C)c1ccnc(-n2cc(S(=O)(=O)Nc3c(OC)ccc4cnn(C)c34)cn2)c1 [Compound I-482, N-(6-methoxy-1-methyl-1H-indazol-7-yl)-1-(4-(1-methoxy-2-methylpropan-2-yl)pyridin-2-yl)-1H-pyrazole-4-sulfonamide]
> 2500 nM	< 400 nM		Cn1ncc2cccc(NS(=O)(=O)c3cnn(-c4cc(C5(C#N)COC5)ccn4)c3)c21 [Compound I-483]
> 2500 nM	< 400 nM		COC1(c2ccnc(-n3cc(S(=O)(=O)Nc4cccc5cnn(C)c45)cn3)c2)CC2(CC2)C1 [Compound I-484, 1-(4-(5-methoxyspiro[2.3]hexan-5-yl)pyridin-2-yl)-N-(1-methyl-1H-indazol-7-yl)-1H-pyrazole-4-sulfonamide]
400 to 1000 nM	< 400 nM		COc1ccc2cnn(C)c2c1NS(=O)(=O)c1cnn(-c2cc(C3(OC)CC4(CC4)C3)ccn2)c1 [Compound I-485, N-(6-methoxy-1-methylindazol-7-yl)-1-(4-{5-methoxyspiro [2.3]hexan-5-yl}pyridin-2-yl) pyrazole-4-sulfonamide]
≤ 400 nM		< 400 nM	N-(6-Methoxy-1-Methyl-1H-Indazol-7-yl)-1-(4-(Trifluoromethyl)Pyridin-2-yl)-1H-Pyrazole-4-Sulfonamide [Compound I-5]
